Assays:
Type in all cases: in vivo
[1] = system: Digitaria sanguinalis; test: Post-emergence herbicidal action, greenhouse, 320 g/ha; conditions: application rate 320 g/ha, rated visually after about 3 weeks vs untreated controls
How it was run: (§1)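 Plants treated post-emergence at the one-leaf stage, 2 to 3 weeks after sowing in sandy loam, with WP or EC formulations plus 0.5% additive at 320 g/ha. Visual rating about 3 weeks later versus untreated controls (100% = dead, 0% = like control).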

[2] = system: Hordeum murinum; test: as above; conditions: application rate 320 g/ha, rated visually after about 3 weeks vs untreated controls
How it was run: as §1

[3] = system: Pharbitis purpurea; test: as above; conditions: application rate 320 g/ha, rated visually after about 3 weeks vs untreated controls
How it was run: as §1

[4] = system: Abutilon theophrasti; test: Pre-emergence herbicidal action, greenhouse, 320 g/ha; conditions: application rate 320 g/ha, scored visually after about 3 weeks vs untreated controls
How it was run: (§2)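 Seeds were sown in pots and covered with soil. WP or EC formulations were sprayed onto the soil surface as aqueous suspension or emulsion with 0.5% additive. Damage was scored visually after about 3 weeks as % activity against untreated controls (100% = plants dead, 0% = like control).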

[5] = system: Alopecurus myosuroides; test: as above; conditions: application rate 320 g/ha, scored visually after about 3 weeks vs untreated controls
How it was run: as §2

[6] = system: Amaranthus retroflexus; test: as above; conditions: application rate 320 g/ha, scored visually after about 3 weeks vs untreated controls
How it was run: as §2

[7] = system: Avena fatua; test: as above; conditions: application rate 320 g/ha, scored visually after about 3 weeks vs untreated controls
How it was run: as §2

[8] = system: Digitaria sanguinalis; test: as above; conditions: application rate 320 g/ha, Table B9
How it was run: as §2

[9] = system: Echinochloa crus-galli; test: as above; conditions: application rate 320 g/ha, scored visually after about 3 weeks vs untreated controls
How it was run: as §2

[10] = system: Hordeum murinum; test: as above; conditions: application rate 320 g/ha, Table B14
How it was run: as §2

[11] = system: Matricaria inodora; test: as above; conditions: application rate 320 g/ha, scored visually after about 3 weeks vs untreated controls
How it was run: as §2

[12] = system: Polygonum convolvulus; test: as above; conditions: application rate 320 g/ha, scored visually after about 3 weeks vs untreated controls
How it was run: as §2

[13] = system: Setaria viridis; test: as above; conditions: application rate 320 g/ha, Table B11
How it was run: as §2

[14] = system: Stellaria media; test: as above; conditions: application rate 320 g/ha, scored visually after about 3 weeks vs untreated controls
How it was run: as §2

[15] = system: Viola tricolor; test: as above; conditions: application rate 320 g/ha, Table B8
How it was run: as §2

[16] = system: Amaranthus retroflexus; test: Herbicidal post-emergence action (Part 2), 1280 g/ha; conditions: application rate 1280 g/ha, rated visually after about 3 weeks, Table C5
How it was run: (§3)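 Post-emergence greenhouse test: one-leaf-stage weeds (2–3 wk after sowing, sandy loam) sprayed onto green parts; WP/EC in water + 0.5% additive, 600 L/ha. Visual rating ~3 wk, 0–100% vs untreated.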

[17] = system: Echinochloa crus-galli; test: as above; conditions: post-emergence (Part 2), application rate 1280 g/ha, rated visually after about 3 weeks vs untreated controls
How it was run: as §3

[18] = system: Matricaria inodora; test: as above; conditions: application rate 1280 g/ha, rated visually after about 3 weeks, Table C6
How it was run: as §3

[19] = system: Stellaria media; test: as above; conditions: application rate 1280 g/ha, rated visually after about 3 weeks, Table C7
How it was run: as §3

[20] = system: Amaranthus retroflexus; test: Herbicidal pre-emergence action (Part 2), 1280 g/ha; conditions: application rate 1280 g/ha, scored visually after about 3 weeks, Table D6
How it was run: (§4)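 Visual percent activity, scored roughly 3 weeks after treatment relative to untreated pots (100% meaning plants died), is reported. Compounds as wettable powders or emulsion concentrates with 0.5% additive were applied to the soil surface over freshly sown seeds at 600 L water/ha.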

[21] = system: Echinochloa crus-galli; test: as above; conditions: application rate 1280 g/ha, scored visually after about 3 weeks, Table D1
How it was run: as §4

[22] = system: Matricaria inodora; test: as above; conditions: application rate 1280 g/ha, scored visually after about 3 weeks, Table D7
How it was run: as §4

[23] = system: Poa annua; test: as above; conditions: application rate 1280 g/ha, scored visually after about 3 weeks, Table D3
How it was run: as §4

[24] = system: Stellaria media; test: as above; conditions: application rate 1280 g/ha, scored visually after about 3 weeks, Table D8
How it was run: as §4

[25] = system: Abutilon theophrasti; test: Post-emergence herbicidal action, greenhouse, 320 g/ha; conditions: application rate 320 g/ha, rated visually after about 3 weeks vs untreated controls
How it was run: as §1

[26] = system: Amaranthus retroflexus; test: as above; conditions: application rate 320 g/ha, rated visually after about 3 weeks vs untreated controls
How it was run: as §1

[27] = system: Matricaria inodora; test: as above; conditions: application rate 320 g/ha, rated visually after about 3 weeks vs untreated controls
How it was run: as §1

[28] = system: Polygonum convolvulus; test: as above; conditions: application rate 320 g/ha, rated visually after about 3 weeks vs untreated controls
How it was run: as §1

[29] = system: Setaria viridis; test: as above; conditions: application rate 320 g/ha, rated visually after about 3 weeks vs untreated controls
How it was run: as §1

[30] = system: Stellaria media; test: as above; conditions: application rate 320 g/ha, rated visually after about 3 weeks vs untreated controls
How it was run: as §1

[31] = system: Viola tricolor; test: as above; conditions: application rate 320 g/ha, rated visually after about 3 weeks vs untreated controls
How it was run: as §1

[32] = system: Pharbitis purpurea; test: Pre-emergence herbicidal action, greenhouse, 320 g/ha; conditions: application rate 320 g/ha, Table B12
How it was run: as §2

[33] = system: Veronica persica; test: as above; conditions: application rate 320 g/ha, Table B13
How it was run: as §2

[34] = system: Abutilon theophrasti; test: Herbicidal pre-emergence action (Part 2), 1280 g/ha; conditions: application rate 1280 g/ha, scored visually after about 3 weeks, Table D5
How it was run: as §4

[35] = system: Lolium rigidum; test: as above; conditions: application rate 1280 g/ha, scored visually after about 3 weeks, Table D2
How it was run: as §4

[36] = system: Setaria viridis; test: as above; conditions: application rate 1280 g/ha, scored visually after about 3 weeks, Table D4
How it was run: as §4

Row | Compound | Digitaria sanguinalis (efficacy in %) [1] | Hordeum murinum (efficacy in %) [2] | Pharbitis purpurea (efficacy in %) [3] | Abutilon theophrasti (efficacy in %) [4] | Alopecurus myosuroides (efficacy in %) [5] | Amaranthus retroflexus (efficacy in %) [6] | Avena fatua (efficacy in %) [7] | Echinochloa crus-galli (efficacy in %) [9] | Hordeum murinum (efficacy in %) [10] | Matricaria inodora (efficacy in %) [11] | Polygonum convolvulus (efficacy in %) [12] | Setaria viridis (efficacy in %) [13] | Stellaria media (efficacy in %) [14] | Viola tricolor (efficacy in %) [15] | Amaranthus retroflexus [20] | Echinochloa crus-galli [21] | Matricaria inodora [22] | Poa Annua [23] | Stellaria media [24] | Abutilon theophrasti (efficacy in %) [25] | also measured
1 | CC(=O)OC1CC(C)N(C)C(=O)N1c1cc(C(C)(C)C)on1 (mixture of isomers) [I.42-162] | 100% | 90% | 100% | 100% | 90% | 100% | 80% | 80% | 90% | 100% | 90% | 100% | 100% | 90% | 100% | 100% | 100% | 100% | 100% |  | Digitaria sanguinalis (efficacy in %) [8]: 80%; Amaranthus retroflexus [16]: 100%; Echinochloa crus-galli [17]: 100%; Matricaria inodora [18]: 100%; Stellaria media [19]: 100%
2 | CN1CCC(OC(=O)C(C)(C)C)N(c2cc(C(C)(C)C)on2)C1=O (stereo not shown) [I.6-162] |  | 90% | 90% | 100% | 90% | 100% | 90% | 100% | 90% | 100% | 90% | 100% | 100% | 100% |  |  |  |  |  | 100% | Amaranthus retroflexus (efficacy in %) [26]: 80%; Matricaria inodora (efficacy in %) [27]: 100%; Polygonum convolvulus (efficacy in %) [28]: 100%; Setaria viridis (efficacy in %) [29]: 100%; Stellaria media (efficacy in %) [30]: 100%; Viola tricolor (efficacy in %) [31]: 100%; Pharbitis purpurea (efficacy in %) [32]: 90%; Veronica persica (efficacy in %) [33]: 100%
3 | CCC(=O)OC1CC2CCCN2C(=O)N1c1cc(C(C)(C)C)on1 (stereo not shown) [I.123-162] | 100% |  |  |  |  |  |  |  |  |  |  |  |  |  | 100% | 100% | 100% | 100% | 100% | 100% | Amaranthus retroflexus (efficacy in %) [26]: 100%; Matricaria inodora (efficacy in %) [27]: 80%; Polygonum convolvulus (efficacy in %) [28]: 100%; Stellaria media (efficacy in %) [30]: 100%; Viola tricolor (efficacy in %) [31]: 100%; Abutilon theophrasti [34]: 100%; Lolium rigidum [35]: 100%; Setaria viridis [36]: 100%
